Test results: US20220386591A1, “CRYOPRESERVATION COMPOSITIONS AND METHODS INCLUDING GLYCEROL ESTER COMPONENTS” (THE SECANT GROUP LLC, priority 2021, published 2022)

Tested on: Jurkat E6.1 cells (ATCC #TIB-152)
Experiment: Post-thaw viability of cells frozen immediately after addition of cryopreservative (trypan blue exclusion)
Assay type: cell-based
Settings: 10 wt % DMSO, FIG. 1
Description: A glycerol ester component in the form of PGS was added to cell culture media containing Jurkat E6.1 cells (ATCC #TIB-152) at three different concentrations: 250 μg/mL (about 0.025 wt %), 500 μg/mL (about 0.05 wt %), and 1000 μg/mL (about 0.1 wt %). […] Cell culture media containing Jurkat E6.1 cells (ATCC #TIB-152) with no PGS and cell culture media containing Jurkat E6.1 cells (ATCC #TIB-152) with 10% DMSO served as controls. Cells were then immediately frozen at a rate of −1° C./min to −80° C. Once frozen, the cryopreserved cells were transferred to liquid nitrogen vapor phase storage for 72 hours. Following storage in a liquid nitrogen vapor phase, the cells were thawed and their viability was assessed through a trypan blue exclusion assay using a ThermoFisher Countess II FL automated cell counter to determine the percentage of viable cells.

Structure (SMILES): C[S+](C)[O-] [DMSO, dimethyl sulfoxide]
- cryoprotection of viable cells post-thaw (positive control): provided cryoprotection to essentially all of the viable cells
